Data as given in PMC10800876, “Evaluation of proline-rich antimicrobial peptides as potential lead structures for novel antimycotics against Cryptococcus neoformans” (Frontiers in Microbiology, 2024).
In brackets after ≈: the same amount, converted by molar mass. Read-outs that look alike come from different tables or passages of the source. Non-standard residues stand in square brackets, D forms with d. Residues, ends and D or L forms follow the SMILES beside them. *: point of attachment. Orn(α-tetramethylguanidino) = CN(C)C(=N[C@@H](CCCN)C(=O)*)N(C)C; Ac6c = NC1(C(=O)O)CCCCC1; Orn = NCCC[C@H](N)C(=O)O

How the values were obtained:
[1] = tested on: C. neoformans 1841 (serotype D); conditions: for MIC (mg/L) 1841 24 h / MIC (mg/L) 1841 48 h: 50% SAB in phosphate buffer
[2] = tested on: C. neoformans H99 (serotype A)
[3] = tested on: C. neoformans KN99α (serotype A, mating type MATα)
[4] = tested on: C. neoformans strains 1841, H99, and KN99α; assay: Broth microdilution assay (MIC); type: cell-based, Cryptococcus neoformans
[5] = 1841 (serotype D, 24 h, pH 7.5)
[6] = 1841 (serotype D, 48 h, pH 7.5)
[7] = KN99α (serotype A, mating type MATα, 24 h)
[8] = KN99α (serotype A, mating type MATα, 48 h)
[9] = strains 1841, H99, and KN99α, 24 h
[10] = broth microdilution, 50% SAB in phosphate buffer pH 7.5, 5 × 10^4 CFU/mL, 30°C, read after 24 h, mean of six replicates (n = 6)
[11] = broth microdilution, 50% SAB in phosphate buffer pH 7.5, 5 × 10^4 CFU/mL, 30°C, read after 48 h, n = 6
[12] = broth microdilution, 50% SAB in phosphate buffer, 30°C, read after 24 h, n = 6
[13] = broth microdilution, 50% SAB in phosphate buffer, 30°C, read after 48 h, n = 6
[14] = broth microdilution, 30°C, read after 24 h, n = 6
[15] = broth microdilution, 30°C, read after 48 h, n = 6

Molecule | MIC (μmol/L) 1841 24 h [1, 5] | MIC (μmol/L) 1841 48 h [1, 6] | MIC (μmol/L) H99 24 h ([2]; H99 (serotype A, 24 h)) | MIC (μmol/L) H99 48 h ([2]; H99 (serotype A, 48 h)) | MIC (μmol/L) KN99α 24 h [3, 7] | MIC (μmol/L) KN99α 48 h [3, 8] | MIC (mg/L) 1841 24 h [1, 14] | MIC (mg/L) 1841 48 h [1, 15] | further results
CC[C@H](C)[C@H](NC(=O)CNC(=O)[C@H](CCC(=O)O)NC(=O)[C@H](CCCCN)NC(=O)[C@H](CC(C)C)NC(=O)[C@H](CCCCN)NC(=O)[C@H](CCCCN)NC(=O)[C@@H](NC(=O)CNC(=O)[C@H](CCC(N)=O)NC(=O)[C@H](CCCCN)NC(=O)[C@@H](NC(=O)[C@H](CCCCN)NC(=O)[C@H](CC(N)=O)NC(=O)[C@H](Cc1ccccc1)NC(=O)[C@H](Cc1ccccc1)NC(=O)[C@H](CCC(N)=O)NC(=O)[C@H](CCCCN)NC(=O)[C@H](CC(C)C)NC(=O)[C@@H](NC(=O)[C@@H]1CCCN1C(=O)[C@H](CCC(N)=O)NC(=O)[C@@H]1CCCN1C(=O)[C@H](CCC(=O)O)NC(=O)[C@@H](N)CCC(N)=O)C(C)C)[C@@H](C)CC)[C@@H](C)CC)C(=O)N[C@@H](CCCCN)C(=O)N[C@@H](CCC(=O)O)C(=O)NCC(=O)NCC(=O)N[C@@H](CCCCN)C(=O)N[C@@H](CCCNC(=N)N)C(=O)N[C@@H](CC(C)C)C(=O)N[C@@H](CC(C)C)C(=O)NCC(=O)O [CRAMP rev] (H-QEPQPVLKQFFNKIKQGIKKLKEGIKEGGKRLLG-OH) | 1.0 µmol/L (≈ 3.88 µg/mL) | 2.1 µmol/L (≈ 8.15 µg/mL) | 1.0 µmol/L (≈ 3.88 µg/mL) | 2.1 µmol/L (≈ 8.15 µg/mL) | 1.0 to 2.1 µmol/L | 2.1 µmol/L (≈ 8.15 µg/mL) | – | – | MIC (mg/L) KN99α 24 h [3, 7]: 4 to 8 mg/L
CC(C)C[C@H](NC(=O)[C@@H]1CCCN1C(=O)[C@H](CCCNC(=N)N)NC(=O)[C@@H]1CCCN1C(=O)[C@H](CCCNC(=N)N)NC(=O)[C@@H]1CCCN1C(=O)[C@@H]1CCCN1C(=O)[C@H](CCCNC(=N)N)NC(=O)[C@@H]1CCCN1C(=O)[C@@H](NC(=O)[C@@H](N)CCCNC(=N)N)C(C)C)C(=O)N[C@@H](Cc1ccc(O)cc1)C(=O)N1CCC[C@H]1C(=O)N[C@@H](CCCNC(=N)N)C(=O)N1CCC[C@H]1C(=O)N[C@@H](CCCCN)C(=O)N[C@@H](CC(=O)O)C(=O)N1CCC[C@H]1C(=O)N[C@@H](CCCNC(=N)N)C(=O)NC1(C(N)=O)CCCCC1 [Chex1Arg20 rev] (H-RVPRPPRPRPLYPRPKDPR[Ac6c]-NH2; N-terminus assumed) | 3.2 µmol/L (≈ 7.92 µg/mL) | 3.2 µmol/L (≈ 7.92 µg/mL) | 3.2 µmol/L (≈ 7.92 µg/mL) | 3.2 to 6.5 µmol/L | 3.2 µmol/L (≈ 7.92 µg/mL) | 6.5 µmol/L (≈ 16.1 µg/mL) | – | – | MIC (mg/L) H99 48 h ([2]; H99 (serotype A, 48 h)): 8 to 16 mg/L
CC[C@H](C)[C@H](NC(=O)[C@H](CCCN)NC(=O)[C@@H](NC(=O)[C@@H](N)CCCN)[C@@H](C)CC)C(=O)N[C@@H](CCCN)C(=O)N[C@@H](CCCNC(=N)N)C(=O)N1CCC[C@H]1C(=O)N[C@H](C(=O)N[C@@H](Cc1ccc(O)cc1)C(=O)N[C@@H](CCCN)C(=O)N1CCC[C@H]1C(=O)N[C@@H](CCCNC(=N)N)C(=O)N1CCC[C@H]1C(=O)N[C@@H](CCCNC(=N)N)C(=O)N1CCC[C@H]1C(=O)N1CCC[C@H]1C(=O)N[C@@H](Cc1c[nH]cn1)C(=O)N1CCC[C@H]1C(=O)N[C@@H](CCCNC(=N)N)C(=O)N[C@@H](CCCNC(=N)N)C(=O)O)C(C)C [Api822] (H-[Orn]I[Orn]I[Orn]RPVY[Orn]PRPRPPHPRR-OH) | 3.2 µmol/L (≈ 7.88 µg/mL) | 3.2 µmol/L (≈ 7.88 µg/mL) | 3.2 µmol/L (≈ 7.88 µg/mL) | 3.2 µmol/L (≈ 7.88 µg/mL) | 3.2 µmol/L (≈ 7.88 µg/mL) | 3.2 µmol/L (≈ 7.88 µg/mL) | – | – | MIC [4, 9]: 1.6 to 6.7 µM
gu-LRPHPPRPRPIYVPRNNO-NH2 [Api88 rev] | – | – | – | – | – | – | – | – | MIC (μmol/L) 1841 24 h [1, 10]: 7.0 µmol/L; MIC (μmol/L) 1841 48 h [1, 11]: 7.0 µmol/L; MIC (μmol/L) H99 24 h [2, 12]: 7.0 µmol/L; MIC (μmol/L) H99 48 h [2, 13]: 14 µmol/L; MIC (μmol/L) KN99α 24 h [3, 12]: 7.0 µmol/L; MIC (μmol/L) KN99α 48 h [3, 13]: 14 µmol/L
CC[C@H](C)[C@H](NC(=O)[C@H](CCCN)NC(=O)[C@H](CCCNC(=N)N)NC(=O)[C@@H]1CCCN1C(=O)[C@@H]1CCCN1C(=O)[C@H](CCCNC(=N)N)NC(=O)[C@@H]1CCCN1C(=O)[C@H](CCCNC(=N)N)NC(=O)[C@@H]1CCCN1C(=O)[C@H](CC(C)C)NC(=O)[C@H](Cc1ccc(O)cc1)NC(=O)[C@@H]1CCCN1C(=O)[C@@H]1CCCN1C(=O)[C@H](CCCCN)NC(=O)[C@H](CC(=O)O)NC(=O)[C@@H](N)C(C)C)C(=O)N[C@@H](Cc1ccc(O)cc1)C(=O)N[C@@H](CC(N)=O)C(=O)N[C@@H](CCCN)C(N)=O [Onc72] (H-VDKPPYLPRPRPPR[Orn]IYN[Orn]-NH2; N-terminus and C-terminus assumed) | 28 µmol/L (≈ 64.6 µg/mL) | 56 µmol/L (≈ 129 µg/mL) | 14 µmol/L (≈ 32.3 µg/mL) | 28 to 56 µmol/L | 14 to 28 µmol/L | 56 µmol/L (≈ 129 µg/mL) | 64 mg/L (≈ 27.8 µM) | 128 mg/L (≈ 55.5 µM) | MIC (mg/L) H99 48 h ([2]; H99 (serotype A, 48 h)): 64 to 128 mg/L; MIC (mg/L) KN99α 24 h [3, 7]: 32 to 64 mg/L
CC[C@H](C)[C@H](NC(=O)[C@@H]1CCCN1C(=O)[C@H](CCCNC(=N)N)NC(=O)[C@@H]1CCCN1C(=O)[C@H](Cc1c[nH]cn1)NC(=O)[C@H](CO)NC(=O)[C@@H](NC(=O)[C@@H]1CCCN1C(=O)[C@H](CCCNC(=N)N)NC(=O)[C@@H]1CCCN1C(=O)[C@H](CO)NC(=O)[C@H](Cc1ccc(O)cc1)NC(=O)[C@@H]1CCCN1C(=O)[C@H](CCCNC(=N)N)NC(=O)[C@@H]1CCCN1C(=O)[C@H](CCCCN)NC(=O)CN)[C@@H](C)O)C(=O)N[C@@H](CCCNC(=N)N)C(=O)N[C@H](C(=O)O)C(C)C [Drosocin, reference compound] (H-GKPRPYSPRPTSHPRPIRV-OH) | 29 µmol/L (≈ 63.8 µg/mL) | 58 µmol/L (≈ 128 µg/mL) | 58 µmol/L (≈ 128 µg/mL) | >58 µmol/L | >58 µmol/L | >58 µmol/L | – | – | MIC [4, 9]: > 58 µM
CC[C@H](C)[C@H](NC(=O)[C@H](Cc1ccc(O)cc1)NC(=O)[C@@H](NC(=O)[C@@H]1CCCN1C(=O)[C@H](CCCNC(=N)N)NC(=O)[C@H](CC(N)=O)NC(=O)[C@H](CC(N)=O)NC(=O)[C@H](CCCN)N=C(N(C)C)N(C)C)C(C)C)C(=O)N1CCC[C@H]1C(=O)N[C@@H](CCCNC(=N)N)C(=O)N1CCC[C@H]1C(=O)N[C@@H](CCCNC(=N)N)C(=O)N1CCC[C@H]1C(=O)N1CCC[C@H]1C(=O)N[C@@H](Cc1c[nH]cn1)C(=O)N1CCC[C@H]1C(=O)N[C@@H](CCCNC(=N)N)C(=O)N[C@@H](CC(C)C)C(=O)O [Api137] ({Orn(α-tetramethylguanidino)}-NNRPVYIPRPRPPHPRL-OH; N-terminus and C-terminus assumed) | 14 µmol/L (≈ 32.1 µg/mL) | 28 µmol/L (≈ 64.2 µg/mL) | 14 µmol/L (≈ 32.1 µg/mL) | 28 µmol/L (≈ 64.2 µg/mL) | 14 to 28 µmol/L | 28 to 56 µmol/L | 32 mg/L (≈ 14 µM) | 64 mg/L (≈ 27.9 µM) | MIC [4]: 32 to 64 µg/mL; MIC [4, 9]: 14 to 28 µM; MIC (mg/L) KN99α 24 h [3, 7]: 32 to 64 mg/L; MIC (mg/L) KN99α 48 h [3, 8]: 64 to 128 mg/L
gu-OIOIORPVYOPRPRPPHPRR-OH [Api813] | – | – | – | – | – | – | 8 mg/L | 8 mg/L | MIC (μmol/L) 1841 24 h [1, 10]: 3.1 µmol/L; MIC (μmol/L) 1841 48 h [1, 11]: 3.1 µmol/L; MIC (mg/L) H99 24 h [2, 12]: 4 mg/L; MIC (mg/L) H99 48 h [2, 13]: 4 to 8 mg/L; MIC (mg/L) KN99α 24 h [3, 12]: 4 to 8 mg/L; MIC (mg/L) KN99α 48 h [3, 13]: 8 mg/L
gu-OPNRYIRPRLPPHPNRPV-NH2 [Api88 scr] | – | – | – | – | – | – | 16 mg/L | 32 to 64 mg/L | MIC (μmol/L) 1841 24 h [1, 10]: 7.0 µmol/L; MIC (μmol/L) 1841 48 h [1, 11]: 14 to 28 µmol/L; MIC (μmol/L) H99 24 h [2, 12]: 28 µmol/L; MIC (μmol/L) H99 48 h [2, 13]: 56 µmol/L; MIC (μmol/L) KN99α 24 h [3, 12]: 28 µmol/L; MIC (μmol/L) KN99α 48 h [3, 13]: 56 µmol/L
CC[C@H](C)[C@H](NC(=O)[C@H](CCCNC(=N)N)NC(=O)[C@H](CC(C)C)NC(=O)[C@@H]1CCCN1C(=O)CN)C(=O)N[C@@H](Cc1ccc(O)cc1)C(=O)N[C@H](C(=O)N1CCC[C@H]1C(=O)N[C@@H](Cc1c[nH]cn1)C(=O)N1CCC[C@H]1C(=O)N1CCC[C@H]1C(=O)N1CCC[C@H]1C(=O)N[C@@H](CCCNC(=N)N)C(=O)N1CCC[C@H]1C(=O)N[C@@H](CC(N)=O)C(=O)N[C@@H](CCC(N)=O)C(=O)N[C@@H](CC(N)=O)C(=O)N[C@@H](CCCNC(=N)N)C(=O)O)C(C)C [Apidaecin 1b scr] (H-GPLRIYVPHPPPRPNQNR-OH) | > 61 µmol/L | > 61 µmol/L | > 61 µmol/L | > 61 µmol/L | > 61 µmol/L | > 61 µmol/L | – | – | –
CC[C@H](C)[C@H](NC(=O)[C@H](Cc1ccc(O)cc1)NC(=O)[C@H](CC(N)=O)NC(=O)[C@@H](N)CCCN)C(=O)N[C@@H](CCCN)C(=O)N[C@@H](CCCNC(=N)N)C(=O)N1CCC[C@H]1C(=O)N1CCC[C@H]1C(=O)N[C@@H](CCCNC(=N)N)C(=O)N1CCC[C@H]1C(=O)N[C@@H](CCCNC(=N)N)C(=O)N1CCC[C@H]1C(=O)N[C@@H](CC(C)C)C(=O)N[C@@H](Cc1ccc(O)cc1)C(=O)N1CCC[C@H]1C(=O)N1CCC[C@H]1C(=O)N[C@@H](CCCCN)C(=O)N[C@@H](CC(=O)O)C(=O)N[C@H](C(N)=O)C(C)C [Onc72 rev] (H-[Orn]NYI[Orn]RPPRPRPLYPPKDV-NH2) | 28 µmol/L (≈ 64.6 µg/mL) | 56 µmol/L (≈ 129 µg/mL) | 28 µmol/L (≈ 64.6 µg/mL) | 56 µmol/L (≈ 129 µg/mL) | 28 µmol/L (≈ 64.6 µg/mL) | 56 µmol/L (≈ 129 µg/mL) | – | – | –
